From patent US20030180893A1, “Biotransformation of biologically active compounds made of various classes of chemical substance by means of laccase and manganese peroxidase enzymes” (priority 2000, published 2003)

Legend:
[1] = system: multiresistant S. aureus reference strain “Norddeutscher Stamm”; assay: Agar diffusion test according to Burkhardt against multiresistant S. aureus “Norddeutscher Stamm”; assay type: cell-based; conditions: for Size of inhibition halo: starting materials, S. aureus “Nord. Stamm”; for Inhibition halo: S. aureus “Norddeutscher Stamm”
Experimental: (§1) Methods: An agar diffusion test according to Burkhardt was performed (Burkhardt, F. (Ed.): Mikrobiologische Diagnostik, Georg-Thieme-Verlag Stuttgart, N.Y., 1992, p. 724). The test substances are applied to Sensi-Disc test plates (Becton Dickinson Microbiology Systems, Cockeysville, USA) in graduated concentrations. For testing, Mueller-Hinton II agar was employed in Stacker Petri dishes (Becton Dickinson Microbiology Systems, Cockeysville, USA). S. aureus strain ATCC 6538 was selected as a test strain. The seeding rate of this test strain was selected in such a way that densely arranged, nut non-confluent individual colonies developed after from 16 to 20 h of incubation. After drying the inoculated nutrient substrates, a maximum of 6 test plates is placed onto the agar surface with slight pressing. After 18+2 h of incubation at 36° C., the inhibition halos are measured. For internal quality control, the method was checked with S. aureus ATCC 25923.
Methods: The examination was effected by an agar diffusion test according to the method described in Example 13. As a test germ, the multiresistant S. aureus reference strain “Norddeutscher Stamm” (Smith Kline Beecham) was employed.

[2] = system: multiresistant coagulase-negative S. epidermidis strain 99847; assay: Agar diffusion test according to Burkhardt against multiresistant S. epidermidis; assay type: cell-based
Experimental: as §1
Methods: The examination was effected by an agar diffusion test according to the method described in Example 13. As a test germ, the multiresistant coagulase-negative S. epidermidis strain 99847 isolated from patient material was employed.

[3] = system: S. aureus strain ATCC 6538; assay: Agar diffusion test according to Burkhardt against S. aureus ATCC 6538; assay type: cell-based
Experimental: as §1

[4] = Antimicrobial activity in the preparation examples; conditions: result line of the preparation example; no test germ named

| Compound | Size of inhibition halo ([1]; 0.05 mg/disc) | Size of inhibition halo ([1]; 0.25 mg/disc) | Size of inhibition halo ([2]; starting materials, 0.25 mg/disc) | Inhibition halo ([3]; 10 μg per test plate) | Inhibition halo ([3]; 50 μg per test plate) | Inhibition halo ([3]; 125 μg per test plate) | Inhibition halo ([3]; 250 μg per test plate) | Inhibition halo ([1]; 50 μg) | Inhibition halo ([1]; 125 μg) | Inhibition halo ([1]; 250 μg) | Antimicrobial activity of the coupling product (in words) [4] | Inhibition halo ([2]; 125 μg) | Inhibition halo ([2]; 250 μg) | Antimicrobial activity (in words) ([3]; summary of Table 1) | Inhibition halo ([1]; 10 μg) | Inhibition halo ([2]; 50 μg) |
| --- | --- | --- | --- | --- | --- | --- | --- | --- | --- | --- | --- | --- | --- | --- | --- | --- |
| O=C(NCCO)c1cc(O)ccc1O [2,5-Dihydroxy-N-(2-hydroxyethyl)benzamide, reference compound] | 14 mm | 22 mm | 22 mm |  |  |  |  |  |  |  |  |  |  |  |  |  |
| CC1(C)SC2C(Nc3cc(O)c(C(=O)NCCO)cc3O)C(=O)N2C1C(=O)O (stereo not shown) [Example 1] |  |  |  | 12 mm | 18 mm | 22 mm | 24 mm | 16 mm | 18 mm | 20 mm | antimicrobially active |  |  |  |  |  |
| CC1=C(C(=O)O)N2C(=O)C(Nc3cc(O)c(C(=O)NCCO)cc3O)C2SC1 (stereo not shown) [Example 3] |  |  |  |  | 18 mm | 22 mm | 24 mm | 20 mm | 22 mm | 24 mm | antimicrobially active | 24 mm | 20 mm |  |  |  |
| CC1(C)SC2C(NC(=O)C(Nc3c(O)ccc(O)c3C(=O)NCCO)c3ccc(O)cc3)C(=O)N2C1C(=O)O (stereo not shown) [Example 4] |  |  |  | >30 mm | >30 mm | >30 mm | >30 mm | 18 mm | 22 mm | 24 mm | antimicrobially active | 28 mm | 30 mm | highest antimicrobial activity | 10 mm | 18 mm |
| CC1(C)SC2C(NC(=O)C(Nc3cc(O)c(C(=O)NCCO)cc3O)c3ccccc3)C(=O)N2C1C(=O)O (stereo not shown) [Example 5] |  |  |  |  |  |  |  |  |  |  | antimicrobially active |  |  |  |  |  |
